Data published in patent US8354569B2, “Plant acyltransferases specific for long-chained, multiply unsaturated fatty acids” (University of Bristol, priority 2003, dated 2013).

How the values were obtained:
Thraustochytrium LPAAT = assay: Acyl-CoA specificity of Thraustochytrium LPAAT expressed as GST fusion protein in E. coli; assay type: biochemical; details: 0.4 μg soluble protein fraction, 30 μM 1-oleoyl[U-14C]glycerol-3-phosphate, increasing thioester concentrations
Source text: The PCR product was transferred into the vector pDONOR221 by Gateway reaction (BP reaction; Invitrogen) following the manufacturer's instructions, and the sequence was verified by sequencing. In a next step, the ThLPAAT sequence was then transferred into the vector pDES15 by the LR reaction and employed for expression in E. coli BL21 cells. The ThLPAAT sequence was attached to the open reading frame of the glutathione-S transferase (GST) encoded in the plasmid, in accordance with the manufacturer's instructions. This gave rise to a fusion protein of GST and ThLPAAT.
Expressed protein was detected after expression under standard conditions in E. coli (FIG. 21A) and purified via a glutathione column.
The enzyme assays were determined using 0.4 μg of soluble protein fraction in the presence of 100 mM Tricine-NaOH (pH 8.2), 30 μM 1-oleoyl[U-^14C]glycerol-3-phosphate and increasing concentrations of the thioesters detailed.

Shewanella LPAAT = assay: Functional expression of Shewanella LPAAT in E. coli, enzyme assays; assay type: biochemical, Shewanella hanedai; details: expressed at 10° C. in E. coli BL21, with or without His-tag; 30 μM thioester
Source text: To clone an LPAAT gene from the prokaryotic organism Shewanella, the genomic DNA from Shewanella hanedai was isolated, partially digested with Sau3a and ligated into the vector pUC18. This genomic library was screened for LPAAT genes by a PCR using different primer combinations. This method has made it possible to identify a 1486 by clone whose open reading frame codes for a 25.2 kDa LPAAT protein. The ShLPAAT sequence was introduced into the vector pQE70 (Qiagen) in accordance with the manufacturer's instructions. The resulting plasmids pQE70-Sh and pQE70-ShHis and the blank vector pQE70 were transformed into E. coli BL21 cells and expressed at 10° C. (FIG. 22A). Active protein was obtained at this temperature only (FIG. 22B). The membrane fractions were used for this purpose in the further experiments. […] The high incorporation rate with regard to PUFA acyl-CoA residues is required for the use for the production of PUFA.
The assays were carried out with extracts (1 μg) from E. coli comprising the blank vector (pQE70) or a Shewanella construct without (pQE-Sh) or with His-Tag sequence at the 3′ end (pQE-ShHis) in the presence of 30 μM 1-oleoyl[U-14C]glycerol-3-phosphate and 30 μM of the detailed thioesters.

## CC/C=C\C/C=C\C/C=C\C/C=C\C/C=C\C/C=C\CCC(=O)SCCNC(=O)CCNC(=O)[C@H](O)C(C)(C)COP(=O)(O)OP(=O)(O)OC[C@H]1O[C@@H](n2cnc3c(N)ncnc32)[C@H](O)[C@@H]1OP(=O)(O)O [DHA-CoA]
Thraustochytrium LPAAT
  LPAAT activity of the purified GST fusion protein by acyl-CoA: highest activity
Shewanella LPAAT
  Incorporation activity of the membrane fraction: high level of activity
